This note sets out measurements from PubChem BioAssay (NCI).

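Following 48 hours of exposure in 96-well plates, responses at five concentrations were used to interpolate endpoints linearly. GI50 marks 50% less growth. TGI marks complete inhibition of growth.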 Bounds are passed on as bounds.

Among the test systems are A549 NSCLC; BT-549 breast; HOP-62 NSCLC; HOP-92 NSCLC; HS 578T breast; LOX IMVI melanoma; MDA-MB-435; NCI-H522 lung; SK-MEL-5 melanoma; SW-620 colon.
Holding throughout (experiment): NCI-60 cell line screen, 48 h

With `Cc1nc(-c2nc(-c3ccc(OC(F)(F)F)cc3)no2)nn1Cc1cccc(N2CCC(S(C)(=O)=O)CC2)c1`, the GI50 with A549 NSCLC is 4.62 µM; with BT-549 breast it was 1.07 µM; in the assay with HOP-62 NSCLC it was over 33.1 µM; with HOP-92 NSCLC, 28.9 µM; with HS 578T breast, over 36.9 µM; in the assay with LOX IMVI melanoma, 0.012 µM. The GI50 is 2.9 µM in the assay with MDA-MB-435, over 100 µM in the assay with NCI-H522 lung, under 0.01 µM in the assay on SK-MEL-5 melanoma and over 46.9 µM in the assay on SW-620 colon. Also, the TGI was over 100 µM with A549 NSCLC; 38.6 µM in the assay on BT-549 breast; over 100 µM with HOP-62 NSCLC; over 89 µM in the assay with HOP-92 NSCLC; over 82.1 µM in the assay with HS 578T breast; over 100 µM with LOX IMVI melanoma. Moreover, the TGI in the assay with MDA-MB-435 is over 100 µM; in the assay with NCI-H522 lung, over 100 µM; with SK-MEL-5 melanoma, 1.06 µM; in the assay with SW-620 colon it was over 100 µM.
`Clc1ccc(Nc2ccnc(N3CCN(c4ccnc5cc(Cl)ccc45)CC3)n2)cc1`: the GI50 with A549 NSCLC is 3.32 µM; in the assay on BT-549 breast, 2.13 µM; with HOP-62 NSCLC, 3.1 µM; in the assay on HOP-92 NSCLC, 0.935 µM; in the assay on HS 578T breast it was 1.75 µM; in the assay on LOX IMVI melanoma it was 1.84 µM. The GI50 was 1.86 µM with MDA-MB-435, 1.65 µM with NCI-H522 lung, 1.81 µM in the assay with SK-MEL-5 melanoma and 2.88 µM in the assay on SW-620 colon. In addition, the TGI with A549 NSCLC was over 100 µM; in the assay on BT-549 breast it was 6.92 µM; in the assay on HOP-62 NSCLC, 20.9 µM; in the assay on HOP-92 NSCLC it was 4.18 µM; in the assay with HS 578T breast, 7.79 µM; with LOX IMVI melanoma, 3.58 µM. Besides, the TGI is 5.99 µM in the assay on MDA-MB-435, 4.94 µM in the assay with NCI-H522 lung, 3.66 µM in the assay with SK-MEL-5 melanoma and 11.6 µM in the assay on SW-620 colon.
As to `COc1cc(-c2oc3c(OC)cc(OC)c(O)c3c(=O)c2OC)cc(OC)c1OC`, the TGI in the assay on A549 NSCLC was over 100 µM; in the assay on BT-549 breast, over 100 µM; in the assay with HOP-62 NSCLC, 6.62 µM; in the assay on HOP-92 NSCLC, over 100 µM; in the assay with HS 578T breast it was 8.21 µM; in the assay on LOX IMVI melanoma it was over 100 µM. For the same molecule, the TGI was over 100 µM in the assay on MDA-MB-435, 40.2 µM with NCI-H522 lung, over 100 µM in the assay with SK-MEL-5 melanoma and over 100 µM with SW-620 colon.
As to `COc1ccc2c(c1)oc(=O)c1cc(OC)ccc12`, the GI50 with A549 NSCLC, in the assay on BT-549 breast, in the assay on HOP-62 NSCLC, in the assay with HOP-92 NSCLC, in the assay with HS 578T breast and with LOX IMVI melanoma was over 100 µM each time. In addition, the GI50 was over 100 µM in the assay with MDA-MB-435, over 100 µM with NCI-H522 lung, 65.2 µM in the assay on SK-MEL-5 melanoma and over 100 µM with SW-620 colon. The TGI in the assay with A549 NSCLC, with BT-549 breast, in the assay on HOP-62 NSCLC, with HOP-92 NSCLC, in the assay on HS 578T breast and with LOX IMVI melanoma was over 100 µM in each case. For the same molecule, the TGI in the assay on MDA-MB-435, in the assay with NCI-H522 lung, in the assay with SK-MEL-5 melanoma and in the assay with SW-620 colon was over 100 µM throughout.
For `CCN1C(=O)N(CC)C2C1NN=c1s/c(=C\c3ccco3)c(=O)n12` (centres undefined), the GI50 in the assay with A549 NSCLC was 0.801 µM; in the assay with BT-549 breast it was 0.791 µM; with HOP-62 NSCLC, 0.722 µM; in the assay on HOP-92 NSCLC, 0.349 µM; in the assay with HS 578T breast it was 0.459 µM; in the assay on LOX IMVI melanoma, 0.653 µM. The GI50 is 0.138 µM in the assay with MDA-MB-435, 0.33 µM with NCI-H522 lung, 0.415 µM in the assay with SK-MEL-5 melanoma and 0.439 µM in the assay with SW-620 colon. For the same molecule, the TGI with A549 NSCLC, in the assay on BT-549 breast, with HOP-62 NSCLC, in the assay on HOP-92 NSCLC, in the assay on HS 578T breast and in the assay on LOX IMVI melanoma was over 100 µM throughout. Moreover, the TGI was 0.58 µM in the assay with MDA-MB-435, 55.3 µM in the assay on SK-MEL-5 melanoma and over 100 µM in the assay on SW-620 colon.
For the molecule `N=N/C(=C\c1c(O)[nH]c2ccccc12)c1ccccc1`, the TGI is over 100 µM in the assay with A549 NSCLC; 62.3 µM in the assay on BT-549 breast; 99.8 µM in the assay with HOP-62 NSCLC; over 100 µM with HOP-92 NSCLC; 44.4 µM in the assay on HS 578T breast; over 70.2 µM in the assay on LOX IMVI melanoma. Besides, the TGI in the assay with MDA-MB-435 was 20.3 µM; in the assay on NCI-H522 lung, 86.7 µM; in the assay on SK-MEL-5 melanoma, over 100 µM; with SW-620 colon, over 100 µM.
Consider `CCCc1cc(=O)n2c(C(=O)Nc3cccc(C(=O)OCC)c3)c(C(=O)Nc3ccc(F)cc3)sc2n1`, for which the GI50 in the assay with A549 NSCLC was 4.32 µM; with BT-549 breast, over 140 µM; with HOP-62 NSCLC, 3.54 µM; in the assay with HOP-92 NSCLC it was 1.33 µM; with HS 578T breast it was 1.3 µM; in the assay on LOX IMVI melanoma it was 6.65 µM. Further, the GI50 in the assay with MDA-MB-435 was over 140 µM; with NCI-H522 lung, 65 µM; in the assay on SK-MEL-5 melanoma it was 75.1 µM; with SW-620 colon, 12 µM. Also, the TGI is 24.1 µM in the assay with A549 NSCLC; over 140 µM with BT-549 breast; 28.8 µM with HOP-62 NSCLC; 7.99 µM with HOP-92 NSCLC; 6.37 µM with HS 578T breast; over 140 µM with LOX IMVI melanoma. The TGI in the assay with MDA-MB-435, in the assay on NCI-H522 lung, in the assay with SK-MEL-5 melanoma and in the assay on SW-620 colon was over 140 µM in each case.
For `Cc1ccc(NC(=O)c2cc3ccccc3c(N=Nc3cc(S(=O)(=O)O)ccc3O)c2O)c(C)c1`, the TGI was 80.9 µM in the assay with A549 NSCLC; over 100 µM in the assay on BT-549 breast; over 100 µM with HOP-62 NSCLC; over 100 µM in the assay with HOP-92 NSCLC; over 100 µM in the assay with HS 578T breast; over 100 µM in the assay with LOX IMVI melanoma. The TGI in the assay with MDA-MB-435, with NCI-H522 lung, with SK-MEL-5 melanoma and with SW-620 colon was over 100 µM throughout.
For `COc1cc2ncnc(Nc3cccc(Cl)c3F)c2cc1OC(=O)N1CCN(C)C[C@H]1C`, the GI50 in the assay with A549 NSCLC is over 34.3 µM; with BT-549 breast, over 42.2 µM; with HOP-62 NSCLC, over 35.7 µM; in the assay on HOP-92 NSCLC it was 14.2 µM; in the assay on HS 578T breast it was 21 µM; in the assay on LOX IMVI melanoma, over 36.5 µM. Besides, the GI50 in the assay with MDA-MB-435 was over 40.7 µM; in the assay on NCI-H522 lung, 0.523 µM; with SK-MEL-5 melanoma it was over 39.8 µM; with SW-620 colon, over 44.9 µM. The TGI in the assay with A549 NSCLC is over 58.2 µM; in the assay with BT-549 breast, over 67.2 µM; with HOP-62 NSCLC, over 66.3 µM; with HOP-92 NSCLC it was over 54.8 µM; in the assay on HS 578T breast, over 60.8 µM; with LOX IMVI melanoma, over 53.8 µM. For the same molecule, the TGI is over 59.7 µM in the assay on MDA-MB-435, over 31.3 µM in the assay on NCI-H522 lung, over 56.9 µM with SK-MEL-5 melanoma and over 69.7 µM in the assay with SW-620 colon.
